Counter-ions that a name gives are not always drawn.
test system: HMOX1; experiment: HMOX1 Protein Assay (immunostaining of HO-1 in NHLF cells, GE InCell 1000); type: cell-based; conditions: Homo sapiens, fold change above DMSO treated cells, 5 μM compound, 16 h
Description: Cell Culture. Normal Human Fibroblast (NHLF), were obtained from Lonza. Cultures of cells were maintained in Fibroblast Growth Medium (FGM-2) medium supplemented with 2% fetal bovine serum (FBS), Fibroblast Growth Factor (hFGF-B) 0.5 mL, Insulin 0.5 mL, gentamicin/amphotericin-B 0.5 mL at 37° C. in a humidified atmosphere of 5% CO2. Cells were grown to 80% confluence before treating.
HMOX1 Protein Assay. NHLF cells were grown to 80% confluency and harvested by washing once with HEPES and then trypsinized. Equal numbers (2×10^3 cells per well) of NHLF cells were plated in 384 well optilux tissue culture (BD) plates. Cells were incubated overnight in FGM-2 medium prior to exposure to compound. Cells were treated with either vehicle (DMSO) or compound (dissolved in vehicle) for 16 h. Cells were washed 2× with 1×PBS and fixed with 4% Paraformaldyhyde for 15 min. The fixed cells were then permeabalized with 0.1% Triton X-100 and blocked with 5% BSA in 1×PBS 0.05% Tween-20 for 15 min. HO-1 antibody (abcam) was used for immunostaining at 1:300 dilution in 1% BSA in 1×PBS for 1 hour. Cells were washed 2× with 1×PBS and secondary antibody goat anti-mouse Alexa 488 1:400 dilution (Invitrogen); Hoechst 1:2000 (Invitrogen) in 1% BSA in 1×PBS for 1 hour. Plate was washed 5× with 1×PBS and read at Hoechst Ex.360 […]; Alexa 488 Ex.480 Em. 535 using GE InCell 1000. Results analyzed using GE InCell Analyzer software. Heme oxygenase data represents the fold change above DMSO treated cells.
In general, the fold induction data are reported for 5 μM concentration (i.e., μ-moles of compound to total volume, where the solvent is about 99.2% media and 0.8% DMSO). In some instances, the reported data are for 3 μM concentration, which are indicated by an asterisk (*).

**Q.** How did the fold induction at 5 µM turn out when `Cn1c(Nc2nc3ccc(Cl)cc3s2)nc2cc(C(=O)O)ccc21` [Example 29, 2-(6-Chloro-benzothiazol-2-ylamino)-1-methyl-1H-benzoimidazole-5-carboxylic acid] was run?
**A.** 13.9

**Q.** For `Cn1c(Nc2nc3ccc(Cl)cc3s2)nc2cc(C(=O)NCCO)ccc21` [Example 30, 2-(6-Chloro-benzothiazol-2-ylamino)-1-methyl-1H-benzoimidazole-5-carboxylic acid (2-hydroxy-ethyl)-amide], which fold induction at 5 µM is on record?
**A.** 21.4

**Q.** How did the fold induction at 5 µM turn out when `COCCNC(=O)c1ccc2c(c1)nc(Nc1nc3ccc(Cl)cc3s1)n2C` [Example 31, 2-(6-Chloro-benzothiazol-2-ylamino)-1-methyl-1H-benzoimidazole-5-carboxylic acid (2-methoxy-ethyl)-amide] was run?
**A.** 23.6

**Q.** For `CCNC(=O)c1ccc2c(c1)nc(Nc1nc3ccc(Cl)cc3s1)n2C` [Example 32, 2-(6-Chloro-benzothiazol-2-ylamino)-1-methyl-1H-benzoimidazole-5-carboxylic acid ethylamide], which fold induction at 5 µM is on record?
**A.** 12.6

**Q.** Which fold induction at 5 µM does the source give for `COC(=O)c1ccc2c(c1)nc(Nc1nc3cc(F)c(F)cc3s1)n2C` [Example 33, 2-(5,6-Difluoro-benzothiazol-2-ylamino)-1-methyl-1H-benzoimidazole-5-carboxylic acid methyl ester] here?
**A.** 11.7

**Q.** With `Cn1c(Nc2nc3cc(F)c(F)cc3s2)nc2cc(C(=O)O)ccc21` [Example 34, 2-(5,6-Difluoro-benzothiazol-2-ylamino)-1-methyl-1H-benzoimidazole-5-carboxylic acid] as the compound, how does the fold induction at 5 µM read?
**A.** 15.4

**Q.** Which fold induction at 5 µM does the source give for `CCNC(=O)c1ccc2c(c1)nc(Nc1nc3cc(F)c(F)cc3s1)n2C` [Example 35, 2-(5,6-Difluoro-benzothiazol-2-ylamino)-1-methyl-1H-benzoimidazole-5-carboxylic acid ethylamide] here?
**A.** 12.4

**Q.** Which fold induction at 5 µM does the source give for `Cn1c(Nc2nc3cc(F)c(F)cc3s2)nc2cc(C(=O)NCCO)ccc21` [Example 36, 2-(5,6-Difluoro-benzothiazol-2-ylamino)-1-methyl-1H-benzoimidazole-5-carboxylic acid (2-hydroxy-ethyl)-amide] here?
**A.** 13.8

**Q.** With `COCCNC(=O)c1ccc2c(c1)nc(Nc1nc3cc(F)c(F)cc3s1)n2C` [Example 37, 2-(5,6-Difluoro-benzothiazol-2-ylamino)-1-methyl-1H-benzoimidazole-5-carboxylic acid (2-methoxy-ethyl)-amide] as the compound, how does the fold induction at 5 µM read?
**A.** 16.4

**Q.** With `CNC(=O)c1ccc2nc(Nc3nc4ccc(OC(F)(F)F)cc4s3)n(C)c2c1` [Example 38, 3-Methyl-2-(6-trifluoromethoxy-benzothiazol-2-ylamino)-3H-benzoimidazole-5-carboxylic acid methylamide] as the compound, how does the fold induction at 5 µM read?
**A.** 18

**Q.** For `COCCNC(=O)c1cc2nc(Nc3nc4ccc(OC(F)(F)F)cc4s3)n(C)c2cc1F` [Example 39, 6-Fluoro-1-methyl-2-(6-trifluoromethoxy-benzothiazol-2-ylamino)-1H-benzoimidazole-5-carboxylic acid (2-methoxy-ethyl)-amide], which fold induction at 5 µM is on record?
**A.** 18.2

**Q.** With `COC(=O)c1cc2nc(Nc3nc4ccc(OC(F)(F)F)cc4s3)n(C)c2cc1F` [Example 40, 6-Fluoro-1-methyl-2-(6-trifluoromethoxy-benzothiazol-2-ylamino)-1H-benzoimidazole-5-carboxylic acid methyl ester] as the compound, how does the fold induction at 5 µM read?
**A.** 11.8

**Q.** How did the fold induction at 5 µM turn out when `Cn1c(Nc2nc3ccc(OC(F)(F)F)cc3s2)nc2cc(C(=O)O)c(F)cc21` [Example 41, 6-Fluoro-1-methyl-2-(6-trifluoromethoxy-benzothiazol-2-ylamino)-1H-benzoimidazole-5-carboxylic acid] was run?
**A.** 33.3

**Q.** How did the fold induction at 5 µM turn out when `CCNC(=O)c1cc2nc(Nc3nc4ccc(OC(F)(F)F)cc4s3)n(C)c2cc1F` [Example 42, 6-Fluoro-1-methyl-2-(6-trifluoromethoxy-benzothiazol-2-ylamino)-1H-benzoimidazole-5-carboxylic acid ethylamide] was run?
**A.** 34.7

**Q.** With `Cn1c(Nc2nc3ccc(OC(F)(F)F)cc3s2)nc2cc(C(=O)NCCN3CCOCC3)ccc21` [Example 43, 1-Methyl-2-(6-trifluoromethoxy-benzothiazol-2-ylamino)-1H-benzoimidazole-5-carboxylic acid (2-morpholin-4-yl-ethyl)-amide] as the compound, how does the fold induction at 5 µM read?
**A.** 29.6

**Q.** `Cn1c(Nc2nc3ccc(OC(F)(F)F)cc3s2)nc2cc(C(=O)NCCOC(F)(F)F)ccc21` [Example 44, 1-Methyl-2-(6-trifluoromethoxy-benzothiazol-2-ylamino)-1H-benzoimidazole-5-carboxylic acid (2-trifluoromethoxy-ethyl)-amide] was tested. Which fold induction at 5 µM did it give?
**A.** 12.1

**Q.** `Cn1c(Nc2nc3ccc(OC(F)(F)F)cc3s2)nc2cc(C(=O)NCC(C)(C)O)ccc21` [Example 45, 1-Methyl-2-(6-trifluoromethoxy-benzothiazol-2-ylamino)-1H-benzoimidazole-5-carboxylic acid (2-hydroxy-2-methyl-propyl)-amide] was tested. Which fold induction at 5 µM did it give?
**A.** 12.5

**Q.** With `Cn1c(Nc2nc3ccc(OC(F)(F)F)cc3s2)nc2cc(C(=O)NCCOCCO)ccc21` [Example 46, 1-Methyl-2-(6-trifluoromethoxy-benzothiazol-2-ylamino)-1H-benzoimidazole-5-carboxylic acid [2-(2-hydroxy-ethoxy)-ethyl]-amide] as the compound, how does the fold induction at 5 µM read?
**A.** 17.9

**Q.** Which fold induction at 5 µM does the source give for `Cn1c(Nc2nc3ccc(OC(F)(F)F)cc3s2)nc2cc(C(=O)NCCOCCF)ccc21` [Example 47, 1-Methyl-2-(6-trifluoromethoxy-benzothiazol-2-ylamino)-1H-benzoimidazole-5-carboxylic acid [2-(2-fluoro-ethoxy)-ethyl]-amide] here?
**A.** 11.3

**Q.** For `Cn1c(Nc2nc3ccc(OC(F)(F)F)cc3s2)nc2cc(C(=O)NCc3ccco3)ccc21` [Example 48, 1-Methyl-2-(6-trifluoromethoxy-benzothiazol-2-ylamino)-1H-benzoimidazole-5-carboxylic acid (furan-2-ylmethyl)-amide], which fold induction at 5 µM is on record?
**A.** 15.8

**Q.** `Cn1c(Nc2nc3ccc(OC(F)(F)F)cc3s2)nc2cc(C(=O)NCC3COCCO3)ccc21` (centres unmarked) [Example 49, 1-Methyl-2-(6-trifluoromethoxy-benzothiazol-2-ylamino)-1H-benzoimidazole-5-carboxylic acid ([1,4]dioxan-2-ylmethyl)-amide] was tested. Which fold induction at 5 µM did it give?
**A.** 23.1

**Q.** Which fold induction at 5 µM does the source give for `C[C@H](O)CNC(=O)c1ccc2c(c1)nc(Nc1nc3ccc(OC(F)(F)F)cc3s1)n2C` [Example 50, 1-Methyl-2-(6-trifluoromethoxy-benzothiazol-2-ylamino)-1H-benzoimidazole-5-carboxylic acid ((S)-2-hydroxy-propyl)-amide] here?
**A.** 11.1

**Q.** How did the fold induction at 5 µM turn out when `C[C@@H](O)CNC(=O)c1ccc2c(c1)nc(Nc1nc3ccc(OC(F)(F)F)cc3s1)n2C` [Example 51, 1-Methyl-2-(6-trifluoromethoxy-benzothiazol-2-ylamino)-1H-benzoimidazole-5-carboxylic acid ((R)-2-hydroxy-propyl)-amide] was run?
**A.** 9.9

**Q.** `Cn1c(Nc2nc3ccc(OC(F)(F)F)cc3s2)nc2cc(C(=O)N[C@H]3CC[C@H](O)CC3)ccc21` [Example 52, 1-Methyl-2-(6-trifluoromethoxy-benzothiazol-2-ylamino)-1H-benzoimidazole-5-carboxylic acid (trans-4-hydroxy-cyclohexyl)-amide] was tested. Which fold induction at 5 µM did it give?
**A.** 10

**Q.** How did the fold induction at 5 µM turn out when `Cn1c(Nc2nc3ccc(OC(F)(F)F)cc3s2)nc2cc(C(=O)NCCOCC3CCCO3)ccc21` (centres unmarked) [Example 53, 1-Methyl-2-(6-trifluoromethoxy-benzothiazol-2-ylamino)-1H-benzoimidazole-5-carboxylic acid [2-(tetrahydro-furan-2-ylmethoxy)-ethyl]-amide] was run?
**A.** 20.1

**Q.** With `CCOC(C)CNC(=O)c1ccc2c(c1)nc(Nc1nc3ccc(OC(F)(F)F)cc3s1)n2C` (centres unmarked) [Example 54, 1-Methyl-2-(6-trifluoromethoxy-benzothiazol-2-ylamino)-1H-benzoimidazole-5-carboxylic acid (2-ethoxy-propyl)-amide] as the compound, how does the fold induction at 5 µM read?
**A.** 18.5

**Q.** With `Cn1c(Nc2nc3ccc(OC(F)(F)F)cc3s2)nc2cc(C(=O)NCC3CN(C(=O)OC(C)(C)C)CCO3)ccc21` (centres unmarked) [Example 55, 2-({[1-Methyl-2-(6-trifluoromethoxy-benzothiazol-2-ylamino)-1H-benzoimidazole-5-carbonyl]-amino}methyl)-morpholine-4-carboxylic acid tert-butyl ester] as the compound, how does the fold induction at 5 µM read?
**A.** 4.5

**Q.** How did the fold induction at 5 µM turn out when `Cn1c(Nc2nc3ccc(OC(F)(F)F)cc3s2)nc2cc(C(=O)NCC3CNCCO3)ccc21` (centres unmarked) [Example 56, 1-Methyl-2-(6-trifluoromethoxy-benzothiazol-2-ylamino)-1H-benzoimidazole-5-carboxylic acid (morpholin-2-ylmethyl)-amide hydrochloride] was run?
**A.** 16.1

**Q.** How did the fold induction at 5 µM turn out when `CCOCCNC(=O)c1cc2nc(Nc3nc4ccc(OC(F)(F)F)cc4s3)n(C)c2cc1F` [Example 57, 6-Fluoro-1-methyl-2-(6-trifluoromethoxy-benzothiazol-2-ylamino)-1H-benzoimidazole-5-carboxylic acid (2-ethoxy-ethyl)-amide] was run?
**A.** 32
